Assay results taken from ChEMBL document CHEMBL2074327, “hPepT1-mediated epithelial transport of bacteria-derived chemotactic peptides enhances neutrophil-epithelial interactions” (J Clin Invest, 1998).
Peptide text beside a SMILES is read from it.

How the values were obtained:
Format in all cases: functional, cell-based
[1] = biological target: T1, Solute carrier family 15 member 1 (Homo sapiens) (UniProt P46059); assay: TP_TRANSPORTER: inhibition of fMLP uptake (fMLP: 0.1 uM, Gly-Pro: 10000 uM) in Caco-2 cells
T1 sequence (whole entry): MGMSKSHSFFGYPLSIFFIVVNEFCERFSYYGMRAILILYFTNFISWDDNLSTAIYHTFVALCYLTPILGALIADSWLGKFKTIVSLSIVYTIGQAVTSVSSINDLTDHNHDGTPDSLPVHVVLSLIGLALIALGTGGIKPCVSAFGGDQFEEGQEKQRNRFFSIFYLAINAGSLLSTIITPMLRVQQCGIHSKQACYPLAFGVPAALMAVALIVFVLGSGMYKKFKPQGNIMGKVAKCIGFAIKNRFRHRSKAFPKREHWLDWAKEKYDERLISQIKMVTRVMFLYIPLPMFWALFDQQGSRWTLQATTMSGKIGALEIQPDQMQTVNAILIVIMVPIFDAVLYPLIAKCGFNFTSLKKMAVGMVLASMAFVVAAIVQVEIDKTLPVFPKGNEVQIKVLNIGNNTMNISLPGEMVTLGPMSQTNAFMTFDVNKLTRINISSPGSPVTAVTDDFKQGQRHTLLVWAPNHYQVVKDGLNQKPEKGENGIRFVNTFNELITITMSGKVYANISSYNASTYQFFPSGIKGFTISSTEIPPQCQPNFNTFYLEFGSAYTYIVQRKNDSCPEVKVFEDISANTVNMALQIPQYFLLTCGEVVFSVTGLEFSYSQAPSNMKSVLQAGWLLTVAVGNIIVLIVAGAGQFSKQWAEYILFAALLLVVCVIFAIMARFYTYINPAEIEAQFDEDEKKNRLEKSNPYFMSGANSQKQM

[2] = biological target: T1, Solute carrier family 15 member 1 (Homo sapiens); assay: TP_TRANSPORTER: inhibition of fMLP uptake (fMLP: 0.1 uM, Carnosine: 10000 uM) in Caco-2 cells
[3] = biological target: T1, Solute carrier family 15 member 1 (Homo sapiens); assay: TP_TRANSPORTER: inhibition of Gly-Sar uptake (Gly-Sar: 100 uM, fMLP: 1000 uM) in Xenopus laevis oocytes; conditions: Oocyte
[4] = biological target: T1, Solute carrier family 15 member 1 (Homo sapiens); assay: TP_TRANSPORTER: uptake in Xenopus laevis oocytes; conditions: Oocyte
[5] = biological target: T1, Solute carrier family 15 member 1 (Homo sapiens); assay: TP_TRANSPORTER: inhibition of fMLP uptake (fMLP: 0.1 uM, Gly-Leu: 10000 uM) in Caco-2 cells
[6] = biological target: T1, Solute carrier family 15 member 1 (Homo sapiens); assay: TP_TRANSPORTER: inhibition of fMLP uptake (fMLP: 0.12 uM, Gly-Leu: 10000 uM) in Xenopus laevis oocytes; conditions: Oocyte

`NCC(=O)N1CCC[C@H]1C(=O)O` (H-Gly-Pro-OH) showed an inhibition [1] of 78%.
In the case of `NCCC(=O)N[C@@H](Cc1c[nH]cn1)C(=O)O`, the inhibition [2] is reported as 93%.
With `CSCC[C@H](NC=O)C(=O)N[C@@H](CC(C)C)C(=O)N[C@@H](Cc1ccccc1)C(=O)O` the inhibition [3] was 88% and the Activity [4] was “substrate [+]”.
`CC(C)C[C@H](NC(=O)CN)C(=O)O` was tested, and the inhibition [5] was 93% and the Activity [6] was “inhibitor [+]”.
